We go through two molecules from US9078890B2, “Use of koumine and its homologues in preparation of medicament for treatment of autoimmune diseases of involved bones and joints” (priority 2011, dated 2015).

Marks after values point to notes of the source that are not given here.

The subject of one assay is adjuvant arthritis mice. Kind of assay: Adjuvant arthritis mice: hyperalgesia (phlogogenic paw thermal withdrawal latency). The class given is in vivo, Kunming mice. The protocol: BCG was inactivated in water bath at 80° C., and fully emulsified along with complete Freund's adjuvant to form complete Freund's adjuvant emulsion containing 5 mg/ml BCG, preserved at 4° C., and shake well before use. The Kunming mice were divided into a modeling group and a false modeling group. According to the method recited in the literature [Rasool M, Sabina E P, Lavanya B. Anti-inflammatory effect of Spirulina fusiformis on adjuvant-induced arthritis in mice. Biol Pharm Bull. 2006, 29(12):2483-7], for the modeling group, the model was prepared by intradermal injection of 20 ul the emulsion under the plantar surface of right paws after the mice was narcotized; for the false modeling group, the emulsion was replaced with physiological saline. For the modeling group, the animals were screened on Day 8 after injection: the mice with the injected paw thickness increased >0.5 mm and thermal hyperalgesia occurred (paw thermal withdrawal latency <8 second) were selected as experimental subjects. The selected mice were divided into 5 groups randomly: low, middle, high dose treatment group (0.8, 4, 20 mg/kg); indomethacin positive control group (10 mg/kg); negative control group (physiological saline), each comprising 12 animals. Day 8 after inflammation, intragastric administration was carried out on each group to give corresponding intervention, one time per day for 10 days continuously.
30 min after intragastric administration, the phlogogenic paw thermal withdrawal latency of the mice in each group was determined by photo-thermal dolorimeter to reflect animals' hyperalgesia status.

Assay [1] concerns type II collagen-induced arthritis rat. The assay can be described thus: Type II collagen-induced arthritis rat: condition and body weight. The class given is in vivo, Wistar rat. The protocol:
(§1) Under aseptic conditions, 10 mg chicken type II collagen protein was fully mixed with 5 ml 10 mM glacial acetic acid solution, and stirred overnight in refrigerator at 4° C. to fully dissolve it. It was mixed with complete Freund's adjuvant in equal volume in ice bath to fully emulsify into an emulsion with a collagen concentration of 1 mg/ml.
(§2) Wistar rats are divided into a modeling group and a false modeling group. After the modeling group rats were narcotized with intraperitoneal injection of pentobarbital, the above emulsion was injected intracutaneously at 3 to 4 positions at back, tail root or the like, 0.3 ml for each, an primary immunity was carried out. After 7 days, a secondary immunity was carried out, the emulsifying agent complete Freund's adjuvant of initial immunity was replaced with incomplete Freund's adjuvant, 0.1 ml the emulsion was injected under sevoflurane inhalation anesthesia wherein the injection position is different from the last time. In false modeling group, the emulsion was replaced with solvent glacial acetic acid solution.
(§3) Successfully modeled rat in the modeling group were randomly divide into 5 groups: low, middle, high-dose koumine treatment group, positive control group, negative control group, 10 rats for each group. Beginning from Day 21 after modeling, corresponding intervention was carried out as following in 10 days continuously: 0.6, 3, 15 mg/kg koumine were intragastrically administrated to the low, middle, high-dose koumine treatment group respectively, 1 time every day; 1 mg/kg amethopterin was administrated to the positive control group, 1 time every 3 days, equal volume of physiological saline was administrated for the remained days; equal volume of physiological saline was administrated to the negative control group.

For assay [2] the test system is unchanged. Kind of assay: Type II collagen-induced arthritis rat: thermal hyperalgesia (thermal withdrawal latency). Conditions: amethopterin 1 mg/kg once every 3 days. The class given is in vivo, Wistar rat. Here is the method:
as §1, §2, §3
1 hour after intragastric administration, the thermal withdrawal latency of each group was determined by the photo-thermal dolorimeter; the mechanical pain threshold of rats of each group was determined by Von-frey electromechanical pain threshold detector, thus the condition of thermal hyperalgesia and mechanical hyperalgesia of rats of each group was observed.

Turning to `COc1ccc2c(c1)c(CC(=O)O)c(C)n2C(=O)c1ccc(Cl)cc1` [Positive control, Indomethacin, reference compound], the “Thermal stimulus withdrawal latency, Before intervention” value in the assay on adjuvant arthritis mice (indomethacin 10 mg/kg intragastric once daily for 10 days from Day 8 after inflammation, before intervention) is 13.8 ± 1.2 s. Further, the “Thermal stimulus withdrawal latency, Intervention Day 4” value in the assay with adjuvant arthritis mice (indomethacin 10 mg/kg intragastric once daily from Day 8, Day 4) is 5.9 ± 1.1^★★ second. Also, the “Thermal stimulus withdrawal latency, Intervention Day 8” value in the assay on adjuvant arthritis mice (indomethacin 10 mg/kg intragastric once daily from Day 8, Day 8) is 4.1 ± 0.8^★★ second. In the assay on adjuvant arthritis mice (indomethacin 10 mg/kg intragastric once daily from Day 8, Day 12), the “Thermal stimulus withdrawal latency, Intervention Day 12” value is reported as 8.9 ± 0.9**^★ second. Besides, in the assay with adjuvant arthritis mice (indomethacin 10 mg/kg intragastric once daily from Day 8, Day 16), the “Thermal stimulus withdrawal latency, Intervention Day 16” value was 9.8 ± 1.6**^★ second. Further, the “Thermal stimulus withdrawal latency, Intervention Day 18” value in the assay on adjuvant arthritis mice (indomethacin 10 mg/kg intragastric once daily from Day 8, Day 18) is recorded as 10.1 ± 1.2**^★★ second.

As to `CN(Cc1cnc2nc(N)nc(N)c2n1)c1ccc(C(=O)N[C@@H](CCC(=O)O)C(=O)O)cc1` [Positive control group, Amethopterin, reference compound], the “Body weight after intervention, Day 7” value in assay [1] (amethopterin 1 mg/kg once every 3 days from Day 21, Day 7) is reported as 154.5 ± 8.36 g. Also, in assay [1] (amethopterin 1 mg/kg once every 3 days from Day 21, Day 14), the “Body weight after intervention, Day 14” value is 178.2 ± 5.93 g. Besides, in assay [1] (amethopterin 1 mg/kg once every 3 days from Day 21, Day 21), the “Body weight after intervention, Day 21” value was 203.1 ± 9.11 g. In addition, the “Body weight after intervention, Day 31” value in assay [1] (amethopterin 1 mg/kg once every 3 days from Day 21, Day 31) worked out at 227.0 ± 12.68 g. The “Body weight before intervention” value in assay [1] (amethopterin 1 mg/kg once every 3 days, from Day 21 after modeling for 10 days, before intervention) is given as 129.8 ± 6.21 g. For the same molecule, the “Thermal stimulus withdrawal latency, Before intervention” value in assay [2] (before intervention) was 8.05 ± 1.01 s. The “Thermal stimulus withdrawal latency, Intervention Day 2” value in assay [2] (intervention Day 2) was found to be 8.48 ± 0.73 s. Moreover, in assay [2] (intervention Day 4), the “Thermal stimulus withdrawal latency, Intervention Day 4” value is 9.15 ± 0.57**^★★ second. Besides, the “Thermal stimulus withdrawal latency, Intervention Day 6” value in assay [2] (intervention Day 6) is recorded as 9.27 ± 1.09**^★ second. In addition, in assay [2] (intervention Day 8), the “Thermal stimulus withdrawal latency, Intervention Day 8” value was 9.50 ± 1.08**^★★ second. Moreover, the “Thermal stimulus withdrawal latency, Intervention Day 10” value in assay [2] (intervention Day 10) is reported as 10.31 ± 1.21**^★ second.
